The target in test [1] is T1, DDR2 (Homo sapiens, UniProt Q16832).
T1 sequence (Q16832 22-855): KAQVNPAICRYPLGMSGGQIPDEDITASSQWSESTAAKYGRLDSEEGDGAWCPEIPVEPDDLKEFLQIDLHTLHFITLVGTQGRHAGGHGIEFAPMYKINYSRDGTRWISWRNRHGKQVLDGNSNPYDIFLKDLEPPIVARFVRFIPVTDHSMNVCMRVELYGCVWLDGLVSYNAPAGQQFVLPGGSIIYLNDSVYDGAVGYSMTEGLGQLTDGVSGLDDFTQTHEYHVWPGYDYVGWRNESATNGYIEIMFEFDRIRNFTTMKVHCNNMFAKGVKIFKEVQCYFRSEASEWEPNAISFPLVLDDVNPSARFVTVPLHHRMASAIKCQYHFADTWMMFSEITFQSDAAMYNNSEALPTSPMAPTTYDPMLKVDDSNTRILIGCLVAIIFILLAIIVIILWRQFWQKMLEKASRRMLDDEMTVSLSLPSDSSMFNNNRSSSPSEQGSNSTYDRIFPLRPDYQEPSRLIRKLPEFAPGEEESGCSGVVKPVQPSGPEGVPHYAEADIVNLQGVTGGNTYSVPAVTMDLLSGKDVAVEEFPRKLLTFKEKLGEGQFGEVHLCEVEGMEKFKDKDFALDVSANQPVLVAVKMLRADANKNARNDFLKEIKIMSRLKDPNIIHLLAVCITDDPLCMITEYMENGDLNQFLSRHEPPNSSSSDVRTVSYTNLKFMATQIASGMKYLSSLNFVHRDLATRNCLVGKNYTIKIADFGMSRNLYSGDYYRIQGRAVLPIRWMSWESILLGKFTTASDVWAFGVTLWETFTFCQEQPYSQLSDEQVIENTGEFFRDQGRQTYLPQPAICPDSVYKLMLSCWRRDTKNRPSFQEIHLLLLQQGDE
Nature of the test: DDR2 binding assay (LanthaScreen Europium Kinase Binding assay). The note with it: binding assay, 5 nM DDR2, 10 nM Kinase Tracer 178; Ki from IC50 by Cheng-Prusoff; read-out: Ki DDR2. The arrangement: purchased Life Technologies. As for the experimental part:
(§1) DDR1 and DDR2 binding assays were performed using Life Technologies LanthaScreen™ Europium Kinase Binding assay. The compounds were incubated with 5 nM DDR1 (Carna Biosciences) or 5 nM DDR2 (Life Technologies) for 1 hour at room temperature in white 384-well OptiPlate (PerkinElmer), containing 20 nM or 10 nM Kinase Tracer 178 respectively and 2 nM Europium labelled anti-GST antibody (Life Technologies) in assay buffer (50 mM HEPES pH 7.5, 10 mM MgCl2, 1 mM EGTA and 0.01% BRIJ35).
(§2) The ratio of fluorescence emission 665 nm/615 nm after excitation at 340 nm was obtained using the Tecan Spark 20M plate reader. IC50 values were determined in GraphPad Prism 7.0 software, using 4 parameter model: log(inhibitor) vs. response. IC50 values were converted in Ki using the Cheng-Prusoff equation
Background: TR-FRET usually uses a lanthanide donor and a delayed reading to cut background.

Test [2] deals with T2, DDR1 (Homo sapiens, UniProt Q08345). Briefly: DDR1 cell based assay (PathHunter U2OS DDR1 assay). As to conditions: U2OS-DDR1 cells, bovine Type II Collagen 20 μg/ml. The arrangement: host or cells: U2OS-DDR1 (PathHunter). Here is the method:
The inhibition of DDR1 receptor activation by compounds was evaluated by PathHunter® U2OS DDR1 assay (Eurofins DiscoverX), according to the manufacturer's instructions. Briefly, U2OS-DDR1 cells were seeded in white 384-well plates at a density of 5000 cells/well and incubated for 2 hours at 37° C. and 5% CO2. Cells were then treated with compounds at different concentrations and incubated for 30 minutes, before stimulation with bovine Type II Collagen 20 μg/ml and incubation overnight at 37° C. and 5% CO2. PathHunter Detection Reagents were prepared according to the protocol provided by DiscoverX and 20 μl/well of this mix were added to each well. After incubating the plates for 1 hour at room temperature in the dark, luminescence signal was acquired with a plate reader. Raw data were normalized to vehicle control (0% for normalization) and positive control (100% for normalization; cells treated with 20 μg/ml collagen II) and IC50 parameters were calculated in GraphPad Prism 8.0 software, using sigmoidal dose-response curve fitting with variable slope.

The target in test [3] is T2, DDR1. Nature of the test: DDR1 binding assay (LanthaScreen Europium Kinase Binding assay). The arrangement: purchased Carna Biosciences. As to conditions: binding assay, 5 nM DDR1, 20 nM Kinase Tracer 178; Ki from IC50 by Cheng-Prusoff; read-out: Ki DDR1. As for the experimental part: as §1, §2

Each structure is given as a SMILES string. pIC50, pKi: −log10 of the molar value. Bounds are passed on as bounds.

What is called pKi is −log10 of the Ki, conventionally taken in molar units. As usually defined, the pIC50 is the IC50 on a negative log10 scale, so that one unit is a factor of ten. A low value points to a high IC50.

T2 sequence (Q08345 19-913): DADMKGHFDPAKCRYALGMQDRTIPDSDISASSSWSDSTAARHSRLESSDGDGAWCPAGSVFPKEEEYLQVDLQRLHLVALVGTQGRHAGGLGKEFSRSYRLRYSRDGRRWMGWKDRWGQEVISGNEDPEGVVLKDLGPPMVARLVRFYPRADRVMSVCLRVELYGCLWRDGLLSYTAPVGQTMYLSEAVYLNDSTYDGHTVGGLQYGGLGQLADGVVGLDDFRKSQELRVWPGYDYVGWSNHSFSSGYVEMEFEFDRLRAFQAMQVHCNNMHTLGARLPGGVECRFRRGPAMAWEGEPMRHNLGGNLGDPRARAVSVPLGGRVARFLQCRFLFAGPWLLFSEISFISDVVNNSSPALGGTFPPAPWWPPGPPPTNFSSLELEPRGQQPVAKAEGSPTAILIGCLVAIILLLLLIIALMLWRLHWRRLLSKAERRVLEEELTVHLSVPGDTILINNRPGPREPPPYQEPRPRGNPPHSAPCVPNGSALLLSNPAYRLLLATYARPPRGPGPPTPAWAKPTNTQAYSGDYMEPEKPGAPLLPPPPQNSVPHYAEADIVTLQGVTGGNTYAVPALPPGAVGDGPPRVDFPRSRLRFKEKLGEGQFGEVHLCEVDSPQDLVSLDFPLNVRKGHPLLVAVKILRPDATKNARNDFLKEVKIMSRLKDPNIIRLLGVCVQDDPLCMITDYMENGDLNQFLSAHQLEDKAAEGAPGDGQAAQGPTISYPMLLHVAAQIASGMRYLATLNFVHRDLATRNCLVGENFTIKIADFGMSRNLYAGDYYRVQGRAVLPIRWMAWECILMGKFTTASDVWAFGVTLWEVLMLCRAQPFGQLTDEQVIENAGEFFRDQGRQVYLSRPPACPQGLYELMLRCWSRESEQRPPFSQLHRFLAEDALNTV

For `Cc1n[nH]c2ncc(CN3CCc4c(C(=O)Nc5cc(C6CC6)on5)csc4C3)cc12` [Example 148, N-(5-cyclopropylisoxazol-3-yl)-6-((3-methyl-1H-pyrazolo[3,4-b]pyridin-5-yl)methyl)-4,5,6,7-tetrahydrothieno[2,3-c]pyridine-3-carboxamide], the pKi in test [1] and in test [3] was more than 7.60 in each case. Besides, the negative logarithm of the IC50 (pIC50) in test [2] is more than 7.60.
For `CN1CCN(c2n[nH]c3ncc(CN4CCc5c(C(=O)Nc6cncc(C(F)(F)F)c6)csc5C4)cc23)CC1` [Example 149, 6-((3-(4-methylpiperazin-1-yl)-1H-pyrazolo[3,4-b]pyridin-5-yl)methyl)-N-(5-(trifluoromethyl)pyridin-3-yl)-4,5,6,7-tetrahydrothieno[2,3-c]pyridine-3-carboxamide], the pKi in test [1] and in test [3] was more than 7.60 each time. The pIC50 in test [2] is 7.30 to 7.60.
With `CCCc1cc(NC(=O)c2csc3c2CCN(C(=O)c2cnc4ccccn24)C3)n(C)n1` [Example 39, 6-(imidazo[1,2-a]pyridine-3-carbonyl)-N-(1-methyl-3-propyl-1H-pyrazol-5-yl)-4,5,6,7-tetrahydrothieno[2,3-c]pyridine-3-carboxamide], the pKi in test [1] and in test [3] was more than 7.60 each time. Also, the negative logarithm of the IC50 (pIC50) in test [2] is 7.30 to 7.60.
With `O=C(Nc1cccc(C(F)(F)F)c1)c1csc2c1CCN(C(=O)c1cnc3ccc(OCCN4CCOCC4)cn13)C2` [Example 170, 6-(6-(2-morpholinoethoxy)imidazo[1,2-a]pyridine-3-carbonyl)-N-(3-(trifluoromethyl)phenyl)-4,5,6,7-tetrahydro thieno[2,3-c]pyridine-3-carboxamide], the pKi in test [1] and in test [3] was more than 7.60 in each case. Further, the pIC50 in test [2] is 7.30 to 7.60.
For the molecule `CC(C)(C)c1cc(NC(=O)c2csc3c2CCN(C(=O)c2cnc4ccccn24)C3)n(-c2ccc(F)cc2)n1` [Example 5, N-(3-(tert-butyl)-1-(4-fluorophenyl)-1H-pyrazol-5-yl)-6-(imidazo[1,2-a]pyridine-3-carbonyl)-4,5,6,7-tetrahydrothieno[2,3-c]pyridine-3-carboxamide], the pKi in test [1] and in test [3] was more than 7.60 in each case. The same molecule gave a pIC50 in test [2] of 7.30 to 7.60.
As to `CC(C)(C)c1cc(NC(=O)c2csc3c2CCN(Cc2cnc4ccnn4c2)C3)on1` [Example 156, N-(3-(tert-butyl)isoxazol-5-yl)-6-(pyrazolo[1,5-a]pyrimidin-6-ylmethyl)-4,5,6,7-tetrahydrothieno[2,3-c]pyridine-3-carboxamide], the pKi in test [1] and in test [3] was more than 7.60 throughout. The pIC50 in test [2] was more than 7.60.
In the case of `Cc1n[nH]c2ncc(CN3CCc4c(C(=O)Nc5cc(C(C)(C)C)no5)csc4C3)cc12` [Example 147, N-(3-(tert-butyl)isoxazol-5-yl)-6-((3-methyl-1H-pyrazolo[3,4-b]pyridin-5-yl)methyl)-4,5,6,7-tetrahydrothieno[2,3-c]pyridine-3-carboxamide], the pKi in test [1] and in test [3] was more than 7.60 each time. The pIC50 in test [2] is more than 7.60.
Take `CC(C)(C)c1cc(NC(=O)c2csc3c2CCN(C(=O)c2cnn4ccncc24)C3)on1` [Example 113, N-(3-(tert-butyl)isoxazol-5-yl)-6-(pyrazolo[1,5-a]pyrazine-3-carbonyl)-4,5,6,7-tetrahydrothieno[2,3-c]pyridine-3-carboxamide]: the pKi in test [1] and in test [3] was more than 7.60 in each case. This molecule also gave a pIC50 in test [2] of 7.30 to 7.60.
Turning to `CC(C)(C)c1cc(NC(=O)c2csc3c2CCN(C(=O)c2cnc4ccccn24)C3)n(Cc2ccccc2)n1` [Example 41, N-(1-benzyl-3-(tert-butyl)-1H-pyrazol-5-yl)-6-(imidazo[1,2-a]pyridine-3-carbonyl)-4,5,6,7-tetrahydrothieno[2,3-c]pyridine-3-carboxamide], the pKi in test [1] and in test [3] was more than 7.60 throughout. In test [2], the pIC50 is 7.30 to 7.60.
As to `CC(C)(C)c1cc(NC(=O)c2csc3c2CCN(C(=O)c2cnc4n2CCOC4)C3)on1` [Example 112, N-(3-(tert-butyl)isoxazol-5-yl)-6-(5,6-dihydro-8H-imidazo[2,1-c][1,4]oxazine-3-carbonyl)-4,5,6,7-tetrahydrothieno[2,3-c]pyridine-3-carboxamide], the pKi in test [1] and in test [3] was more than 7.60 each time. Also, the pIC50 in test [2] is 7.30 to 7.60.
Consider `CC(C)(C)c1cc(NC(=O)c2csc3c2CCN(C(=O)c2cnc4ccccn24)C3)n(CCO)n1` [Example 64, N-(3-(tert-butyl)-1-(2-hydroxyethyl)-1H-pyrazol-5-yl)-6-(imidazo[1,2-a]pyridine-3-carbonyl)-4,5,6,7-tetrahydrothieno[2,3-c]pyridine-3-carboxamide], for which the pKi in test [1] and in test [3] was more than 7.60 throughout. Further, the pIC50 in test [2] was 7.30 to 7.60.
Turning to `CN1CCN(Cc2cc(NC(=O)c3csc4c3CCN(C(=O)c3cnc5ccccn35)C4)cc(C(F)(F)F)c2)CC1=O` [Example 59, 6-(imidazo[1,2-a]pyridine-3-carbonyl)-N-(3-((4-methyl-3-oxopiperazin-1-yl)methyl)-5-(trifluoromethyl)phenyl)-4,5,6,7-tetrahydrothieno[2,3-c]pyridine-3-carboxamide], the pKi in test [1] and in test [3] was 7.30 to 7.60 each time. Moreover, the negative-log IC50 (pIC50) in test [2] was 7.30 to 7.60.
Take `O=C(Nc1cccc(C(F)(F)F)c1)c1csc2c1CCN(C(=O)c1cnc3n1CCCC3)C2` [Example 95, 6-(5,6,7,8-tetrahydroimidazo[1,2-a]pyridine-3-carbonyl)-N-(3-(trifluoromethyl)phenyl)-4,5,6,7-tetrahydrothieno[2,3-c]pyridine-3-carboxamide]: the pKi in test [1] and in test [3] was more than 7.60 throughout. The pIC50 in test [2] is more than 7.60.
For `Cc1ccc2ncc(C(=O)N3CCc4c(C(=O)Nc5cc(C(C)(C)C)nn5C)csc4C3)n2c1` [Example 80, N-(3-(tert-butyl)-1-methyl-1H-pyrazol-5-yl)-6-(6-methylimidazo[1,2-a]pyridine-3-carbonyl)-4,5,6,7-tetrahydrothieno[2,3-c]pyridine-3-carboxamide], the pKi in test [1] and in test [3] was more than 7.60 in each case. Also, the pIC50 in test [2] was 7.30 to 7.60.
As for `CN1CCN(CCOc2cc(NC(=O)c3csc4c3CCN(C(=O)c3cnc5ccccn35)C4)cc(C(F)(F)F)c2)CC1` [Example 62, 6-(imidazo[1,2-a]pyridine-3-carbonyl)-N-(3-(2-(4-methylpiperazin-1-yl)ethoxy)-5-(trifluoromethyl)phenyl)-4,5,6,7-tetrahydrothieno[2,3-c]pyridine-3-carboxamide], the pKi in test [1] and in test [3] was more than 7.60 each time. In test [2], the pIC50 is 7.30 to 7.60.
With `COc1ncc(NC(=O)c2csc3c2CCN(C(=O)c2cnn4ccncc24)C3)cc1C(F)(F)F` [Example 121, N-(6-methoxy-5-(trifluoromethyl)pyridin-3-yl)-6-(pyrazolo[1,5-a]pyrazine-3-carbonyl)-4,5,6,7-tetrahydrothieno[2,3-c]pyridine-3-carboxamide], the pKi in test [1] and in test [3] was more than 7.60 each time. In test [2], this molecule gave a pIC50 of 7.10 to 7.30.

(Values after patent US20240391936A1, “TETRAHYDROTHIENO PYRIDINE DERIVATIVES AS DDRS INHIBITORS” (CHIESI FARMACEUTICI S.P.A., priority 2021, published 2024).)
